Source: patent US7994222B2, “Monitoring of the inhibition of fatty acid synthesis by iodo-nitrobenzamide compounds” (BiPar Sciences, Inc., priority 2006, dated 2011)
“Also recorded” adds a separate entry of the source.

Experiments:
tumor tissue = settings: in vivo; cited from earlier work
HeLa cells = test: Metabolic flux profiling with [1,2-13C2]-D-glucose tracer in cultured HeLa cells (GC/MS, MIDA); format: cell-based, human
Excerpt: (§1) Goal: This study relates to analyzing the effect of the 3-nitro-4-iodobenzamide (compound of formula III) in vitro on cultured OVCAR-3 cells' and HeLa cells' metabolic fluxes using [1,2-^13C2]-D-glucose as the only source of glucose. The analysis includes correlating fluxes with cell growth-modifying effect, analyzing mechanism of anti-proliferative action and analyzing potential toxicity, selectivity, and efficacy. Target metabolites include glucose (culture medium and pellet glycogen), lactate (culture medium), ^13CO2 (culture medium), C:14 (myristate); C:16 (palmitate); C:18 (stearate); C:18-1 (oleate); C:20; C:22; C:24 (cell pellet), acetyl-CoA synthesis for fatty acids (cell pellet), and RNA ribose and DNA deoxyribose (cell pellet). Target fluxes include glucose uptake from culture media; lactate production from glucose (anaerobic glycolysis); ^13CO2 release from glucose via TCA cycle; glycogen synthesis; de novo fatty acid synthesis, elongation, desaturation and acetyl-CoA synthesis; and pentose cycle-RNA and DNA ribose synthesis via oxidative and non-oxidative reactions.
(§2) Materials & Methods: The tracer for this metabolic profiling study, stable isotope [1, 2-^13C2]-D-glucose, is purchased with >99% purity and 99% isotope enrichment for each position from Cambridge Isotope Laboratories, Inc. (Andover, Mass.).
(§3) Cells & cell culture: OVCAR3 and Hela cells are purchased from American Type Culture Collection (ATCC). The cells are cultured according to instructions obtained from ATCC. The cells are incubated at 37° C., 5% CO2 and 95% humidity and passed by using trypsin 0.25% (Gibco/BRL) no more than ten times after receipt from the ATCC and prior to use in this study.
(§4) Seventy-five percent confluent cultures cells are incubated in [1,2-^13C2]D-glucose-containing media (100 mg/dl total concentration=5 mM; 50% isotope enrichment—i.e. half unlabeled glucose, half labeled with the stable isotope ^13C tracer). […] Control cultures are treated with vehicle only. […] Glucose and lactate levels in the medium are measured using a Cobas Mira chemistry analyzer (Roche Diagnostics, Pleasanton, Calif., USA).
(§5) RNA ribose stable isotope studies: RNA ribose is isolated by acid hydrolysis of cellular RNA after Trizol purification of cell extracts. Total RNA amounts are assessed by spectrophotometric determination, in triplicate cultures. Ribose is derivatized to its aldonitrile acetate form using hydroxylamine in pyridine with acetic anhydride (Supelco, Bellefonte, Pa.) before mass spectral analyses. The ion cluster is monitored around the m/z 256 (carbons 1-5 of ribose) (chemical ionization, CI) and m/z 217 (carbons 3-5 of ribose) and m/z 242 (carbons 1-4 of ribose) (electron impact ionization, EI) to determine molar enrichment and the positional distribution of ^13C in ribose. By convention, the base mass of ^12C-compounds (with their derivatization agents) is given as m0 as measured by mass spectrometry (Boros L G, et al. 2002, Drug Discov. Today 7: 364-372).
(§6) Ribose molecules labeled with a single ^13C atom on the first carbon position (m1) recovered from RNA are used to gauge the ribose fraction produced by direct oxidation of glucose through the G6PD pathway. Ribose molecules labeled with ^13C on the first two carbon positions (m2) are used to measure the fraction produced by transketolase. Doubly labeled ribose molecules (m2 and m4) on the fourth and fifth carbon positions are used to measure molar fraction produced by triose phosphate isomerase and transketolase.
(§7) Lactate: Lactate from the cell culture media (0.2 ml) is extracted by ethylene chloride after acidification with HCL. Lactate is derivatized to its propylamine-heptafluorobutyrate ester form and the m/z 328 (carbons 1-3 of lactate) (chemical ionization, CI) is monitored for the detection of m1 (recycled lactate through the PC) and m2 (lactate produced by the Embden-Meyerhof-Pamas pathway) for the estimation of pentose cycle activity (Lee W N, et al. 1998, Am J Physiol 274: E843-E851). […]

OVCAR-3 cells = test: Metabolic flux profiling with [1,2-13C2]-D-glucose tracer in cultured OVCAR-3 cells (GC/MS, MIDA); format: cell-based, human
Excerpt: as §1, §2, §3, §4, §5, §6, §7

glycogen phosphorylase = settings: in the presence or absence of glucose; human cells; cited from earlier work
cancer cells = cancer cells with highly active fatty acid synthesis; cited from earlier work
[1] = cited from earlier work

## C=C1C(=O)OC(CCCCCCCC)C1C(=O)O (stereo not shown) [C75]
Tumor tissue
  anti-tumor activity: anti-tumor activity
  fatty acid synthesis in tumor tissue: inhibition

## NC(=O)c1ccc(I)c([N+](=O)[O-])c1 [3-nitro-4-iodobenzamide]
HeLa cells; HeLa cells
  De novo synthesis of arachidic acid (C:20): spared from the inhibitory action
  Oxidation of glucose into CO2 and ATP production in the TCA cycle: not affected
  acetyl-CoA contribution from glucose to long chain saturated fatty acids (C:20-C:24): dose-dependent increase
  contribution to acetyl-CoA synthesis from glucose (C:14-C:18 fatty acids): low
  substrate (glucose) uptake and activation (phosphorylation): no inhibitory effect
  toxic effects on cell energy production, nucleic acid turnover and glycogen synthesis: no toxic effects
HeLa cells; HeLa cells, dose-responsive
  medium and long chain fatty acid (C:14-C:18) de novo synthesis from glucose: decreased
HeLa cells; HeLa cells, mechanism of anti-proliferative action
  cell membrane formation via limited de novo fatty acid synthesis: decreases
HeLa cells; HeLa cultures
  Acetyl-CoA enrichment/formation from glucose for arachidic acid synthesis: high and increases
HeLa cells; Hela cells, 3 and 10 μM, 13C-labeled myristate at 72 hours, FIGS. 3A and B
  myristate (C:14) synthesis: inhibit
HeLa cells; Hela cells, 3 and 10 μM, 13C-labeled oleate at 72 hours, FIGS. 6A and B
  oleate (C:18-1) synthesis: inhibit
HeLa cells; Hela cells, 3 and 10 μM, 13C-labeled palmitate at 72 hours, FIGS. 4A and B
  palmitate (C:16) synthesis: inhibit
HeLa cells; Hela cells, 3 and 10 μM, 13C-labeled stearate at 72 hours, FIGS. 5A and B
  stearate (C:18) synthesis: inhibit
HeLa cells; Hela cells, 3 and 10 μM, 72 hours, FIGS. 7A and B
  C:22 fatty acid synthesis: inhibit
HeLa cells; Hela cells, 3 and 10 μM, 72 hours, FIGS. 8A and B
  C:24 fatty acid synthesis: inhibit
OVCAR-3 cells
  G6PDH and transketolase fluxes for DNA deoxyribose synthesis: target enzymes; also recorded: inhibits
  Glycogen synthesis and breakdown via the direct pathway: inhibits
  acetyl-CoA contribution from glucose to long chain saturated fatty acids (C:20-C:24): dose-dependent increase
  toxic effects on cell energy production and nucleic acid RNA turnover: no toxic effects
OVCAR-3 cells; 3 and 10 μM, 72 hours, FIGS. 9A and B
  arachidic acid (C:20) synthesis: inhibit
OVCAR-3 cells; 3 and 10 μM, 72 hours, FIGS. 10A and B
  C:22 fatty acid synthesis: inhibit
OVCAR-3 cells; 3 and 10 μM, 72 hours, FIGS. 11A and B
  C:24 fatty acid synthesis: inhibit
OVCAR-3 cells; mechanism of anti-proliferative action
  cell membrane formation via limited de novo long chain (C:20-C:24) fatty acid synthesis: decreases
Glycogen phosphorylase
  glycogen phosphorylase activity: effectively controls

## C/C=C/C/C=C/CCC(=O)[C@H]1O[C@H]1C(N)=O [cerulenin]
Cancer cells
  effect on cancer cells in vitro: cell death by means of apoptosis
[1]
  in vivo activity: limited in vivo activity
